Laboratory results taken from PubChem BioAssay AID248 (DTP/NCI, 2004).
“And” between values parts separate entries of the source, which are not always exact repeats. Equal entries are not always repeated. Inconclusive results and toxic doses are left out.

System: L1210 leukemia ip in BDF1 mice, survival T/C
Experiment: NCI In Vivo Anticancer Drug Screen. Data for tumor model L1210 Leukemia (intraperitoneal) in B6D2F1 (BDF1) mice
Details: endpoint: mean survival time, higher = longer survival
Outline: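 Ratio derived from survival: compound-dosed mice over vehicle-dosed mice, all bearing a transplantable tumor.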

[1] = dose: 100.0 mg/kg/injection, schedule: Q01DX001 (ip), vehicle: saline
[2] = dose: 200.0 mg/kg/injection, schedule: Q01DX001 (ip), vehicle: saline
[3] = dose: 400.0 mg/kg/injection, schedule: Q01DX001 (ip), vehicle: saline
[4] = dose: 50.0 mg/kg/injection, schedule: Q01DX009 (ip), vehicle: saline
[5] = dose: 100.0 mg/kg/injection, schedule: Q04DX003 (ip), vehicle: saline with Tween-80
[6] = dose: 200.0 mg/kg/injection, schedule: Q04DX003 (ip), vehicle: saline with Tween-80
[7] = dose: 400.0 mg/kg/injection, schedule: Q04DX003 (ip), vehicle: saline with Tween-80
[8] = dose: 12.5 mg/kg/injection, schedule: Q01DX009 (ip), vehicle: Klucel (hydroxypropylcellulose) (HPC)
[9] = dose: 25.0 mg/kg/injection, schedule: Q01DX009 (ip), vehicle: Klucel (hydroxypropylcellulose) (HPC)
[10] = dose: 25.0 mg/kg/injection, schedule: Q04DX003 (ip), vehicle: Klucel (hydroxypropylcellulose) (HPC)
[11] = dose: 50.0 mg/kg/injection, schedule: Q01DX009 (ip), vehicle: Klucel (hydroxypropylcellulose) (HPC)
[12] = dose: 100.0 mg/kg/injection, schedule: Q01DX009 (ip), vehicle: Klucel (hydroxypropylcellulose) (HPC)
[13] = dose: 100.0 mg/kg/injection, schedule: Q04DX003 (ip), vehicle: Klucel (hydroxypropylcellulose) (HPC)
[14] = dose: 200.0 mg/kg/injection, schedule: Q01DX009 (ip), vehicle: Klucel (hydroxypropylcellulose) (HPC)
[15] = dose: 200.0 mg/kg/injection, schedule: Q04DX003 (ip), vehicle: Klucel (hydroxypropylcellulose) (HPC)
[16] = dose: 400.0 mg/kg/injection, schedule: Q04DX003 (ip), vehicle: Klucel (hydroxypropylcellulose) (HPC)
[17] = dose: 50.0 mg/kg/injection, schedule: Q01DX001 (ip), vehicle: carboxymethylcellulose (CMC)
[18] = dose: 100.0 mg/kg/injection, schedule: Q01DX001 (ip), vehicle: carboxymethylcellulose (CMC)
[19] = dose: 200.0 mg/kg/injection, schedule: Q01DX001 (ip), vehicle: carboxymethylcellulose (CMC)
[20] = dose: 400.0 mg/kg/injection, schedule: Q01DX001 (ip), vehicle: carboxymethylcellulose (CMC)
[21] = dose: 100.0 mg/kg/injection, schedule: Q04DX003 (ip), vehicle: saline
[22] = dose: 100.0 mg/kg/injection, schedule: Q01DX001 (ip), vehicle: Klucel (hydroxypropylcellulose) (HPC)

With `CCC1CN2CCc3cc(OC)c(OC)cc3C2CC1CC1c2cc(OC)c(OC)cc2CCN1C(=O)C(N)Cc1ccccc1` (centres undefined) the T/C [1] was 107 % of control, the T/C [2] was 97 % of control and the T/C [3] was 110 % of control.

In the case of `N#CCC(C#N)C1C=CCC1` (centres undefined), the T/C (dose: 5.0 mg/kg/injection, schedule: Q01DX001 (ip), vehicle: saline) is reported as 97 % of control, the T/C (dose: 10.0 mg/kg/injection, schedule: Q01DX001 (ip), vehicle: saline) is reported as 97 % of control and the T/C (dose: 12.5 mg/kg/injection, schedule: Q04DX003 (ip), vehicle: saline with Tween-80) is reported as 98 % of control.

`O=S(=O)(NC(=S)c1ccccc1)c1ccccc1` was tested, and the T/C [4] was 108 % of control and the T/C (dose: 100.0 mg/kg/injection, schedule: Q01DX009 (ip), vehicle: saline) was 97 % of control.

With `CCCCOC(=O)CNC(=O)N(CC)C(=NCC)c1ccc(NC(=O)c2ccc(C(=O)Nc3ccc(C(=NCC)N(CC)C(=O)NCC(=O)OCCCC)cc3)cc2)cc1` the T/C (dose: 1.87 mg/kg/injection, schedule: Q01DX015 (ip), vehicle: methylcellulose (MC)) was 106 % of control, the T/C (dose: 7.5 mg/kg/injection, schedule: Q01DX015 (ip), vehicle: methylcellulose (MC)) was 162 % of control and 189 % of control and the T/C (dose: 15.0 mg/kg/injection, schedule: Q01DX015 (ip), vehicle: methylcellulose (MC)) was 121 % of control.

`CC1CC(=O)CC(C)(C)N1` (centres undefined) was tested, and the T/C [1] was 105 % of control, the T/C [2] was 98 % of control and the T/C [3] was 94 % of control.

`CCCCCCCCCCCCCCCNC1=C(OC)C(=O)C(NCCCCCCCCCCCCCCC)=C(OC)C1=O` was tested, and the T/C (dose: 100.0 mg/kg/injection, schedule: Q01DX001 (ip), vehicle: other) was 90 % of control, the T/C (dose: 200.0 mg/kg/injection, schedule: Q01DX001 (ip), vehicle: other) was 93 % of control and the T/C (dose: 400.0 mg/kg/injection, schedule: Q01DX001 (ip), vehicle: other) was 96 % of control.

With `CCCC(Br)C(=O)OCC` (centres undefined) the T/C [5] was 101 % of control and the T/C [6] was 96 % of control.

For `CCCCCCCCCCCCCCCCS(=O)(=O)N/N=C(/c1cccc(N)c1)N1CCCCC1`, the T/C (dose: 50.0 mg/kg/injection, schedule: Q04DX003 (ip), vehicle: saline with Tween-80) was 87 % of control, the T/C [5] was 90 % of control and the T/C [7] was 88 % of control.

`C/C=C/CCCCCCCC` was tested, and the T/C (dose: 100.0 mg/kg/injection, schedule: Q01DX001 (ip), vehicle: saline with Tween-80) was 93 % of control, the T/C (dose: 200.0 mg/kg/injection, schedule: Q01DX001 (ip), vehicle: saline with Tween-80) was 95 % of control and the T/C (dose: 400.0 mg/kg/injection, schedule: Q01DX001 (ip), vehicle: saline with Tween-80) was 96 % of control.

With `O=C1C2CCC(=O)N2c2ccccc2S(=O)(=O)C1c1ccccc1` (centres undefined) the T/C [8] was 95 % of control, the T/C [9] was 98 % of control and the T/C [10] was 96 % of control. The T/C [11] was 91 % of control and the T/C (dose: 50.0 mg/kg/injection, schedule: Q04DX003 (ip), vehicle: Klucel (hydroxypropylcellulose) (HPC)) was 96 % of control.

With `CC(C)=CCC(=O)NC(=O)NS(=O)(=O)c1ccc(C)cc1` the T/C (dose: 10.2 mg/kg/injection, schedule: Q01DX009 (ip), vehicle: Klucel (hydroxypropylcellulose) (HPC)) was 100 % of control, the T/C [12] was 96 % of control and the T/C [13] was 100 % of control. The T/C [14] was 100 % of control, the T/C [15] was 102 % of control and the T/C [16] was 101 % of control.

For `O=C1C(Cl)=C(Nc2ccc3cn[nH]c3c2)C(=O)c2ccccc21`, the T/C [17] was 102 % of control, the T/C [18] was 100 % of control and the T/C [19] was 102 % of control.

In the case of `COc1ccc(CN2CCCN(Cc3ccc(OC)cc3OC)C2c2cc([N+](=O)[O-])ccc2O)c(OC)c1`, the T/C [17] is reported as 107 % of control, the T/C [18] is reported as 98 % of control and the T/C [19] is reported as 101 % of control. For the same molecule, the T/C [20] was 98 % of control.

For `Clc1ccc2sc3c(c2c1)CCNC3`, the T/C [8] was 94 % of control, the T/C [9] was 97 % of control and the T/C [10] was 97 % of control. The T/C [11] was 90 % of control, the T/C [12] was 101 % of control and the T/C [13] was 92 % of control. The T/C [14] was 95 % of control and the T/C [15] was 92 % of control.

In the case of `Cc1cc(C)c(C(=O)OC(C)CNC2CCCCC2)c(C)c1` (centres undefined), the T/C (dose: 75.0 mg/kg/injection, schedule: Q01DX001 (ip), vehicle: carboxymethylcellulose (CMC)) is reported as 96 % of control and the T/C (dose: 150.0 mg/kg/injection, schedule: Q01DX001 (ip), vehicle: carboxymethylcellulose (CMC)) is reported as 102 % of control.

In the case of `Cc1cc(=O)[nH]cn1`, the T/C [21] is reported as 100 % of control, the T/C (dose: 200.0 mg/kg/injection, schedule: Q04DX003 (ip), vehicle: saline) is reported as 112 % of control and the T/C (dose: 400.0 mg/kg/injection, schedule: Q04DX003 (ip), vehicle: saline) is reported as 94 % of control.

With `C=C(Cl)COC(=O)C(C)O` (centres undefined) the T/C (dose: 25.0 mg/kg/injection, schedule: Q01DX001 (ip), vehicle: Klucel (hydroxypropylcellulose) (HPC)) was 98 % of control, the T/C (dose: 50.0 mg/kg/injection, schedule: Q01DX001 (ip), vehicle: Klucel (hydroxypropylcellulose) (HPC)) was 96 % of control and the T/C [22] was 100 % of control.

`CC(=O)OC1CCC2(C)C(=CCC3C2CCC2(C)C3CCC2(O)C(C)=O)C1` (centres undefined) was tested, and the T/C [22] was 101 % of control, the T/C (dose: 200.0 mg/kg/injection, schedule: Q01DX001 (ip), vehicle: Klucel (hydroxypropylcellulose) (HPC)) was 97 % of control and the T/C (dose: 400.0 mg/kg/injection, schedule: Q01DX001 (ip), vehicle: Klucel (hydroxypropylcellulose) (HPC)) was 98 % of control.

For `CC(=O)OC1CC2(CO2)C2CC3OC3(C)C2C2OC(=O)C(C)C12` (centres undefined), the T/C (dose: 12.5 mg/kg/injection, schedule: Q04DX002 (ip), vehicle: saline) was 95 % of control, the T/C (dose: 25.0 mg/kg/injection, schedule: Q04DX002 (ip), vehicle: saline) was 92 % of control and the T/C (dose: 50.0 mg/kg/injection, schedule: Q04DX002 (ip), vehicle: saline) was 110 % of control. For the same molecule, the T/C (dose: 75.0 mg/kg/injection, schedule: Q04DX002 (ip), vehicle: saline) was 97 % of control, the T/C (dose: 100.0 mg/kg/injection, schedule: Q04DX002 (ip), vehicle: saline) was 95 % of control and the T/C (dose: 115.0 mg/kg/injection, schedule: Q04DX002 (ip), vehicle: saline) was 104 % of control. For the same molecule, the T/C (dose: 170.0 mg/kg/injection, schedule: Q04DX002 (ip), vehicle: saline) was 104 % of control, the T/C (dose: 200.0 mg/kg/injection, schedule: Q04DX002 (ip), vehicle: saline) was 110 % of control and the T/C (dose: 400.0 mg/kg/injection, schedule: Q04DX002 (ip), vehicle: saline) was 95 % of control.

`NS(=O)(=O)c1ccc(CNC(=O)c2ccc(C(=O)NCc3ccc(S(N)(=O)=O)cc3)cc2)cc1` was tested, and the T/C [1] was 111 % of control, the T/C [2] was 103 % of control and the T/C [3] was 103 % of control.

In the case of `Cc1nc(Cl)c2cnccn12`, the T/C (dose: 12.5 mg/kg/injection, schedule: Q01DX009 (ip), vehicle: saline) is reported as 101 % of control, the T/C (dose: 25.0 mg/kg/injection, schedule: Q01DX009 (ip), vehicle: saline) is reported as 105 % of control and the T/C [4] is reported as 103 % of control. For the same molecule, the T/C [21] was 88 % of control.

In the case of `CCc1ccccc1NC(=O)NC(C)C`, the T/C [12] is reported as 98 % of control, the T/C [13] is reported as 90 % of control and the T/C [14] is reported as 91 % of control. For the same molecule, the T/C [15] was 97 % of control, the T/C (dose: 400.0 mg/kg/injection, schedule: Q01DX009 (ip), vehicle: Klucel (hydroxypropylcellulose) (HPC)) was 95 % of control and the T/C [16] was 92 % of control.

For `O=c1[nH]c(-c2ccccc2)ncc1OCc1ccccc1`, the T/C [17] was 91 % of control, the T/C [18] was 100 % of control and the T/C [19] was 96 % of control. The T/C [20] was 89 % of control.

With `O=Cc1cc(Cl)cc(Cl)c1OC(=O)c1ccccc1` the T/C [12] was 97 % of control and the T/C [14] was 92 % of control.

In the case of `C=CCOc1ccc(OCC=C)nn1`, the T/C [13] is reported as 104 % of control, the T/C [15] is reported as 97 % of control and the T/C [16] is reported as 101 % of control.

For `CNC(=O)Oc1cccc(NC(=O)N(C(C)C)C(C)C)c1`, the T/C [5] was 91 % of control, the T/C [6] was 89 % of control and the T/C [7] was 88 % of control.

With `C=C(C)C(=O)OCC1CO1` (centres undefined) the T/C (dose: 50.0 mg/kg/injection, schedule: Q01DX Z (ip), vehicle: other) was 90 % of control, the T/C (dose: 100.0 mg/kg/injection, schedule: Q01DX Z (ip), vehicle: other) was 95 % of control and the T/C (dose: 200.0 mg/kg/injection, schedule: Q01DX Z (ip), vehicle: other) was 107 % of control.
